Measurements as given in patent US6737057B1, “Compounds, compositions and methods for the endocytic presentation of immunosuppressive factors” (The University of Tennessee Research Corporation, priority 1997, dated 2004).
Where “and” joins values, the source holds several entries; their conditions need not be identical. Equal entries are not always repeated. Entries after “also recorded” stand apart in the source; their conditions may differ.

T1: I-A^S class II molecules (Mus musculus, UniProt P06345+P14437)
T1 sequence (P14437 1-233): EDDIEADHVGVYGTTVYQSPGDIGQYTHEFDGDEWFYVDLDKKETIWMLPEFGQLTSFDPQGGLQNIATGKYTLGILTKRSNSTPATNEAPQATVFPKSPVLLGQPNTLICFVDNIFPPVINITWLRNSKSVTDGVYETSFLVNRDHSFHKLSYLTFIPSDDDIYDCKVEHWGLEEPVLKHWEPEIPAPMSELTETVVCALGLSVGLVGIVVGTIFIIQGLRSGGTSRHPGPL
T1 sequence (P06345 28-263): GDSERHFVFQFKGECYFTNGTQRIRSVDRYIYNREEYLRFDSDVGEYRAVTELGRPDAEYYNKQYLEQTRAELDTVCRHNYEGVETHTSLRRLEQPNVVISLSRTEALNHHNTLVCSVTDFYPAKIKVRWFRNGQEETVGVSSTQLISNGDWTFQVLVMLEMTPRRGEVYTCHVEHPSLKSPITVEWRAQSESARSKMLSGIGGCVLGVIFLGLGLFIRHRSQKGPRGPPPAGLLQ


Tests used:
T cell hybridomas = conditions: reported by Kuchroo et al.; cited from earlier work
4E3 T cell hybridomas = assay: Prepulsed proliferation assay: antagonism of agonist mediated T cell activation; format: cell-based, mouse; design: key to T cell antagonism, Stimulator (Agonist) PLP1 / T cell antagonism, Stimulator (Agonist) PLP / T cell antagonism, Stimulator (Agonist) Ig-PLP1: +: a plus sign indicates inhibition of IL-2 production and therefore antagonism; −: a minus sign indicates little or no inhibition of IL-2 production and therefore little or no antagonism; conditions: for antagonism of Ig-PLP1 mediated T cell activation (IL-2 production): agonist 0.05 μM Ig-PLP1, FIG. 5B; for control thymidine incorporation (agonist, no antagonist): 1 μM PLP1 peptide, 0.05 μM Ig-PLP1 or 7 μM PLP, background not deducted
Experimental: Irradiated (3,000 rads) SJL splenocytes (used as APCs) were incubated in 96-well round bottom plates (5×10^5 cells/well/50 μl) with the selected agonist (1 μM PLP1 peptide, 0.05 μM Ig-PLP1 or 7 μM PLP) and various concentrations of antagonist (100 μl/well) for 1 hour. Subsequently, 4E3 T cell hybridomas (5×10^4 cells/well/50 μl) were added and the culture was continued overnight. IL-2 production in the supernatant, determined as in Example VI using HT-2 cells, was used as measure of T cell activation.
Cpm values obtained when the APCs were incubated with the agonist but no antagonist was used as control thymidine incorporation. This value was 7,503±1,302 for Ig-PLP1; 31,089±3,860 for PLP1 peptide; and 8,268±915 for PLP. The cpm value obtained when the APCs were incubated with no agonist or antagonist was used as background (BG). This value was 1,560±323 for Ig-PLP1; 2,574±290 for PLP1 peptide; and 2,127±177 for PLP. The percent control thymidine incorporation was calculated as follows: [(cpm obtained in the presence of test antagonist)−(BG)]/[(cpm control thymidine incorporation value)−(BG)]. Each point represents the mean of triplicates.

PLP1 specific T cells = assay: In vivo inhibition of T cell response to PLP1 on co-administration with Ig-PLP1; design: species or system SJL mice
Experimental: Mice were co-immunized with mixtures of either 50 μg Ig-PLP1 and 150 μg Ig-PLP-LR or 50 μg Ig-PLP1 combined with 150 μg Ig-W. In particular, individual mice from three groups (4 mice per group) were injected sc, as in Example X with a 200 μl mixture (PBS/CFA, 1:1 v/v) containing one of the following mixtures: 50 μg Ig-PLP1 and 150 μg Ig-PLP-LR; 50 μg Ig-PLP1 and 150 μg Ig-W; or Ig-PLP1 and 100 μg PLP-LR peptide. Splenic and lymph node T cell responses were analyzed at day 10 post immunization using the protocol set forth in Example X. The lymph node cells were assayed at 4×10^5 cells/well and the spleen cells at 10×10^5 cells/well. The agonist ligand was PLP1 at 15 μg/mL. Results for the lymph node and spleen cells, shown in FIGS. 8A and 8B respectively and summarized in Table 2 below, represent the mean±SD of triplicates after deduction of background cpm obtained with no agonist in the media.
(mean cpm of triplicates obtained with PLP1 stimulation−mean cpm triplicate BG)/(mean cpm of triplicates obtained with PPD−mean cpm triplicate BG)×100

[1] = tested on: PLP1-specific T cell hybridoma 4E3; assay: T cell hybridoma activation assay (IL-2 production), 4E3; format: cell-based, mouse; conditions: for IL-2 production by T cell hybridoma 4E3: SJL splenocyte APCs, 0.1 μM Ig chimeras, 1 μM peptides, 1.7 μM PLP, FIG. 3A; for EC50: 4E3 hybridoma, irradiated SJL/J splenocytes, IL-2 by HT-2 3H-thymidine incorporation, FIG. 4, read-out: stimulation to half the maximum level
Experimental: (§1) PLP1-specific T cell hybridomas 5B6 and 4E3 and the IL-2 dependent HT-2 T helper cells were obtained from The Eunice Kennedy Shriver Center, Waltham, Mass. The 5B6 and 4E3 T cells recognize the peptide PLP1 in association with 1-A^S class II MHC and produces IL-2 when incubated with it as reported by Kuchroo et al., J. Immunol. 153:3326-3336, 1994 which is incorporated herein by reference. Conversely, Kuchroo et al. report that when stimulated with PLP1 and then with PLP-LR both 5B6 and 4E3 cells no longer produce IL-2.
(§2) Using substantially the same technique as Kuchroo et al., activation of the T cell hybridomas for various agonists was performed as follows. Irradiated (3,000 rads) splenocytes from SJL mice were used as antigen presenting cells (APCs) for this Example. The irradiated splenocytes were incubated in 96-well round bottom plates (5×10^5 cells/well/50 μl) with graded concentrations of antigens (100 μl/well). After one hour, T cell hybridomas, i.e. 5B6 of 4E3 (5×10^4 cells/well/50 μl) were added and the culture was continued overnight. Activation (or proliferation) of the T cells was assessed by measuring production of IL-2 in the culture supernatant. This was done by ^3H-thymidine incorporation using the IL-2 dependent HT-2 cells. That is, when IL-2 is present (i.e. secreted by activated T cells) the HT-2 cells proliferate, incorporating labeled thymidine from the surrounding media.
(§3) The culture media used to carry out these assays was DMEM supplemented with 10% FBS, 0.05 mM 2-mercaptoethenol, 2 mM glutamine, 1 mM sodium puryvate and 50 μg/mL gentamycin sulfate. Briefly, culture supernatants (100 μl/well) were incubated with HT-2 cells (1×10^4 cells/well/100 μl) in 96-well flat bottom plates for 24 hours. Subsequently 1 μCi ^3H-thymidine was added per well and the culture was continued for an additional 12-14 hours. The cells were then harvested on glass fiber filters and the non incorporated ^3H-thymidine was washed away. Incorporated thymidine was then counted using the trace 96 program and an Inotech β counter. It will be appreciated that those wells containing higher levels of IL-2 (secreted by the activated T cell hybridoma lines) will induce higher levels of HT-2 cell proliferation and register increased levels of ^3H-thymidine incorporation.
Specifically, different concentrations of the three antigens (i.e. agonists) were incubated with irradiated SJL/J splenocytes which were subsequently associated with 4E3 T cell hybridomas. IL-2 production was measured by ^3H-thymidine incorporation using the IL-2 dependent HT-2 cells as described in Example VI. Each point represents the mean of triplicates.

[2] = tested on: PLP1-specific T cell hybridoma 5B6; assay: T cell hybridoma activation assay (IL-2 production), 5B6; format: cell-based, mouse; conditions: SJL splenocyte APCs; 0.1 μM Ig chimeras, 1 μM peptides, 1.7 μM PLP; FIG. 3B
Experimental: as §1, §2, §3

I-A^S class II molecules = biological target: T1, I-A^S class II molecules; conditions: cited from earlier work
PLP-LR specific T cells = assay: In vivo T cell response to PLP-LR after co-administration with Ig-PLP1; design: species or system SJL mice; conditions: co-administered with Ig-PLP1; lymph node and spleen cells, PLP-LR 15 μg/mL; FIG. 9
Experimental: Lymph node and spleen cells were obtained in the same manner as set forth in Example X following co-administration of Ig-PLP1 and Ig-PLP-LR. Proliferative responses in individual mice were also measured using the methods set out in the previous Example following in vitro stimulation with either free PLP1 peptide or PLP-LR peptide at 15 μg/mL. The results of the assays using lymph node and spleen cells are detailed in FIGS. 9A and 9B respectively.

SJL mice = conditions: cited from earlier work

Molecule | effect on IL-2 production of T cell hybridomas stimulated with PLP1 (T cell hybridomas) | antagonism of Ig-PLP1 mediated T cell activation (IL-2 production) (4E3 T cell hybridomas) | IC50 (4E3 T cell hybridomas; agonist 1 μM PLP1 peptide, FIG. 5A, read-out: Inhibition of IL-2 production to half the maximum level (60% control thymidine incorporation)) [nM] | antagonism of native PLP mediated T cell activation (IL-2 production) (4E3 T cell hybridomas; agonist 7 μM PLP, FIG. 5C) | T cell antagonism, Stimulator (Agonist) Ig-PLP1 (4E3 T cell hybridomas; agonist Ig-PLP1, summary of FIG. 5) | T cell antagonism, Stimulator (Agonist) PLP1 (4E3 T cell hybridomas; agonist PLP1, summary of FIG. 5) | T cell antagonism, Stimulator (Agonist) PLP (4E3 T cell hybridomas; agonist PLP, summary of FIG. 5) | PLP1/PPD (%) (PLP1 specific T cells; co-administered sc with 50 μg Ig-PLP1 (150 μg Ig or 100 μg peptide), day 10, individual mice 1-4, PLP1 specific relative to PPD specific proliferation, listed as PLP-LR peptide) | reduction of immune response to PLP1 peptide (PLP1 specific T cells; co-administered with Ig-PLP1, lymph node and spleen cells, FIG. 8) | IL-2 production by T cell hybridoma 4E3 [1] | IL-2 production by T cell hybridoma 5B6 [2] | binding to I-A^S class II molecules (I-A^S class II molecules) | T cell response to PLP-LR (PLP-LR specific T cells) | control thymidine incorporation (agonist, no antagonist) (4E3 T cell hybridomas) | encephalitogenic activity / EAE induction (SJL mice) | EC50 [1] [nM] | antagonism of PLP1 peptide mediated T cell activation (IL-2 production) (4E3 T cell hybridomas; agonist 1 μM PLP1 peptide, FIG. 5A)
HSLGKLLGRPNKF [PLP-LR, analog of PLP1 in which Trp144 and His147 were replaced with Leu and Arg] | inhibits IL-2 production | did not show any significant antagonism; also recorded: failed to inhibit T cell activation | 9000 | failed to inhibit T cell activation | − | + | − | 93% and 100% and 81% and 91% | no indication that the PLP1 response was reduced; also recorded: no evident reduction in the proliferative response to PLP1 | did not stimulate 5B6 and 4E3 to produce significant levels of IL-2 | did not stimulate 5B6 and 4E3 to produce significant levels of IL-2 | bind well | induction of PLP-LR-specific response |  |  |  | 
HSLGKWLGHPNKF [PLP1, a peptide fragment of PLP comprising aa residues 139-151] |  |  |  |  |  |  |  |  |  | substantial levels of IL-2 | substantial levels of IL-2 | bind well |  | 31,089±3,860 cpm | encephalitogenic | 600 | 
NTWTTCQSIAFPSK [PLP2, a peptide fragment of PLP comprising aa residues 178-191] |  | did not show any significant antagonism |  |  |  |  |  |  |  | did not induce the production of IL-2 | did not induce the production of IL-2 | binds |  |  | induces EAE |  | antagonist effects were not observed
proteolipid protein (protein, UniProt P60203 2-277, looked up, native proteolipid protein purified from rat brain) Myelin proteolipid protein: GLLECCARCLVGAPFASLVATGLCFFGVALFCGCGHEALTGTEKLIETYFSKNYQDYEYLINVIHAFQYVIYGTASFFFLYGALLLAEGFYTTGAVRQIFGDYKTTICGKGLSATVTGGQKGRGSRGQHQAHSLERVCHCLGKWLGHPDKFVGITYALTVVWLLVFACSAVPVYIYFNTWTTCQSIAFPSKTSASIGSLCADARMYGVLPWNAFPGKVCGSNLLSICKTAEFQMTFHLFIAAFVGAAATLVSLLTFMIAATYNFAVLKLMGRGTKF |  |  |  |  |  |  |  |  |  | substantial levels of IL-2 | substantial levels of IL-2 |  |  | 8,268±915 cpm |  | 500 | 
